Test results published in a melting point compilation (Tetko et al.; mined from patent text by program, amines drawn as free bases though some values may be those of a salt).

melting point [°C]	SMILES
193 to 195	COc1ccc(Cl)cc1C1(F)C(=O)Nc2ccc(C)cc21 (stereo unspecified)
242 to 245	CCOc1c(C(N)=O)cnc2c(NC(=O)c3c(Cl)cccc3Cl)cccc12
200 to 202	N#CCc1ccc(NC(=O)C=C2CC(C(=O)O)Nc3cc(Cl)cc(Cl)c32)cc1 (racemic)
121	CC(C)(C)[Si](C)(C)OC1C(=O)N(S(=O)(=O)c2ccc(N3CCCCCC3)cc2)CC1O (stereo unspecified)
146 to 148	COc1cc(C(=O)OCC2(N(C)C)CCSc3ccccc32)cc(OC)c1OC (stereo unspecified)
170 to 172	O=C(NC1CCCCCCC1)NS(=O)(=O)c1ccc(CCNC(=O)N2CCCCC2=O)cc1
78 to 80	CCC(CC)N1CCN(C)c2c1cc(C)nc2Oc1c(C)cc(C)cc1C
165 to 167	CC(C)c1ccccc1-c1nc(-c2ccccc2)n[nH]1
289 to 291	Nc1cccc2c(=O)[nH]ncc12
199	CCOC(=O)c1cnc2c(NC(=O)c3c(Cl)cccc3Cl)cccc2c1CBr
169	Cc1nnc(NCCC2CCCN2C)c2cc3ccccn3c12 (stereo unspecified)
126 to 127	Cc1[nH]c2ccccc2c1Cc1ccncc1
136 to 137	CSc1c[nH]c2ccc(C)cc12
137	NC1N=C(c2ccccc2)C=CS1 (stereo unspecified)
92 to 95	CC(CN(C)C)CN1c2ccccc2OCOc2ccc(Cl)cc21 (single isomer, unassigned; (-))
229 to 230	COc1ccc(-c2[nH]c(-c3ccc([N+](=O)[O-])c(C)c3)nc2C(=O)O)cc1
205 to 206	CC(C)(C)C(=O)OCOC(=O)[C@H]1[C@@H]2CC[C@@](N)(C(=O)O)[C@@H]21
223 to 230	CS(=O)(=O)c1ccc(-n2cnc(Cl)c2-c2cnc(Cl)c(Cl)c2)cc1

melting point [°C]	SMILES
240 to 242	O=C(Nc1ccccn1)C1=C(O)c2sc3ccccc3c2S(=O)(=O)N1
135	C#CCC(C)(C(=O)O)C(=O)O
97 to 99	CSc1ccc(C(=O)C(C#N)C(=O)C(C)(C)C)c(Cl)c1 (stereo unspecified)
92 to 95	COC(=O)CS(=O)(=O)N1CC=C(c2ccc(-c3ccccc3)c(OC)c2)CC1
144 to 145	O=C(CCc1ccccc1)N[C@H](Cc1ccc(C(F)(F)F)cc1)[C@@H](O)c1ccc(F)cc1 (racemic)
186 to 187	CNc1nc(Cl)cc(NS(=O)(=O)c2ccccc2)n1
200 to 205	CN(Cc1cc(C(=O)O)ccc1N)C1CCCCC1
160 to 162	COC(=O)c1cc2cc(-c3ccc(OC)cc3)ccc2o1
168 to 171	Cn1c(-c2ccc(OC3CCN(C4CCC4)CC3)cc2)nc2ccccc2c1=O
> 250	CN1C(=O)C2(COc3cc4c(cc32)OCCO4)c2c(C(N)=O)cccc21 (stereo unspecified)
127 to 129	COC(=O)c1ccc(F)c(S(N)(=O)=O)c1
80	CCN(CC)C(=O)CCc1nc(-c2ccccc2)nc2c(C)cccc12
> 280	O=C1CN2Cc3c(O)cccc3N=C2N1
171 to 172	CC1Cc2ccc([Si](C)(C)C)c(S(N)(=O)=O)c2S1(=O)=O (stereo unspecified)
228 to 232	Cc1nn(C)c2ccc(C(=O)O)c(C(=O)O)c12
177 to 179	COc1c(Cl)cc(F)cc1C1OC(=O)NC1=O (stereo unspecified)
191 to 192	Cn1cc(-c2ccccc2)c(=O)c(-c2ccco2)c1
100 to 102	Clc1csc2c(Cl)cccc12

SMILES	melting point [°C]
COC(=O)c1ccc(CC(C)NCC(O)c2ccc(O)c(CO)c2)cc1OC (stereo unspecified)	64 to 71
CC1(C)C(=O)N(c2ccc(C#N)c(C(F)(F)F)c2)C(=S)N1CCF	135
CC(Cc1ccc(OCC(N)=O)cc1)NCC(OCCO)c1ccc(O)cc1 (stereo unspecified)	145 to 160
CC1(C)CCC(C)(C)c2cc(-c3cc(-c4ccc(C(=O)O)cc4)ccc3CC(O)CO)ccc21 (stereo unspecified)	145
CN1CCC(c2c[nH]c3ccc(SCc4ccccc4)cc23)CC1	138 to 141
